Test results as given in patent US20130266636A1, “METHODS FOR BLOCKING CELL PROLIFERATION AND TREATING DISEASES AND CONDITIONS RESPONSIVE TO CELL GROWTH INHIBITION” (THE REGENTS OF THE UNIVERSITY OF CALIFORNIA, priority 2010, published 2013).
Entries after “also recorded” stand apart in the source; their conditions may differ.

What was measured:
[1] = system: NCI-60 panel; test: NCI-60 panel growth inhibition, overall; type: cell-based, human
From the text: FIG. 8 illustrates […] panel showing the half maximal growth inhibitory concentration of KG5 in […] human cancer cell lines.
Table 1 summarizes KG5's effect in 60 NCI cancer cell lines: the NCI-60 panel showing the half maximal growth inhibitory concentration of KG5 and the RAS and BRAF status in 60 human cancer cell lines.

[2] = biological target: T1, phospho-S338 c-RAF (CRAF) (Homo sapiens, UniProt P04049); test: Phospho-S338 CRAF staining in orthotopic MDA-MB-231 breast cancer tissues; type: in vivo, mice; conditions: systemic KG5 50 mg/kg i.p. bid, 3 days
T1 construct: immunofluorescent staining of phospho-S338 c-RAF (CRAF) in orthotopic breast cancer tissues untreated or systemically treated with KG5; from tissue; host or cells: orthotopic MDA-MB-231 tumours in nude mice
Protocol: FIG. 4 illustrates the effect of KG5 on orthotopic MDA-MB-231 breast cancer cells after three days, as further discussed in Example 1, below.
FIG. 4 illustrates an immunofluorescent staining of phospho-S338 c-RAF (CRAF) in orthotopic breast cancer tissues untreated or systemically treated with KG5 for 3 days.
Tumors were generated by injection of MDA-MB-231 human breast carcinoma cells (2×10^6 tumor cells in 50 μl of sterile PBS) into the mammary fatpad of 6-8 week old female nude mice. Tumors were established for 2 weeks before beginning dosing. Mice were dosed with vehicle (10% HS-15) or 50 mg/kg KG5 (i.p. bid) for 3 days prior to harvest. All research was conducted under protocols approved by the UCSD animal subjects committee and in accordance with the guidelines set forth in the NIH Guide for the Care and Use of Laboratory Animals.
Immunostaining was performed according to the manufacturer's recommendations (Vector Labs), on […] sections of paraffin-embedded tumors from the orthotopic xenograft breast and brain cancer mouse models, the subcutaneous tumor mouse model or from human patients diagnosed with breast or brain cancer (as approved by the Institutional Review Board at University of California, San Diego). Antigen retrieval was performed in citrate buffer pH 6.0 at 95° C. for 20 min. […]

[3] = biological target: T2, RAF dimerization (BRAF and CRAF) (Homo sapiens, UniProt P04049); test: RAF dimerization, immunoblot of BRAF and CRAF immunoprecipitates from A549 cells; type: cell-based
Protocol: FIG. 11 illustrates immunoblot analysis of BRAF and CRAF immunoprecipitates from A549 cells treated with PD0325901, Sorafenib, L-779450, PLX4720, KG5 or KG1.
(§1) Immunoprecipitation and Immunoblot Analysis Cells were lysed in either NP40 lysis buffer (150 mM NaCl, 50 mM Tris Base pH 7.4, 1% NP40) or RIPA buffer (50 mM Tris pH 7.4, 100 mM NaCl, 0.1% SDS) supplemented with complete protease inhibitor mixture (Roche), 50 mM NaF and 1 mM Na3VO4 and centrifuged at 13,000×g for 10 min at 4° C. Protein concentration was determined by BCA assay. […] of protein were immunoprecipitated with […] of anti-Flag (Sigma), anti-CRAF (BD Pharmingen), anti-Plk1 (Abcam), anti-γ-Tubulin (sigma) or anti-cenpF (Santa Cruz) antibodies overnight at 4° C. followed by capture with 25 μl of protein A/G (Pierce). Beads were washed five times, eluted in boiling Laemmli buffer, resolved on 10% SDS-PAGE and immunoblotting was performed with anti-Plk1 antibody (Abcam), anti-CRAF antibody (BD Pharmingen), anti-Aurora A (Abcam), anti-phospho-S338 CRAF (Cell Signaling), anti-phospho-T210 Plk1 or anti-phospho-T288 Aurora A (Cell signaling) diluted 1:1000. For immunoblot analysis, […] of protein was boiled in […]

[4] = system: p21-activated kinase (PAK); conditions: inferred from MEK S298; cited from earlier work
[5] = biological target: PDGFRβ (Homo sapiens, UniProt P09619); conditions: in response to PDGF-BB; cited from earlier work
[6] = system: PDGFR; conditions: cited from earlier work
[7] = biological target: T2, RAF dimerization (BRAF and CRAF); test: RAF dimerization, immunoblot of BRAF and CRAF immunoprecipitates from XPA-1 cells; type: cell-based; parameters: immunoblot analysis of BRAF and CRAF immunoprecipitates from XPA-1 cells; endogenous in cells; host or cells: XPA-1
Protocol: FIGS. 6 and 7 illustrate immunoblot analysis of CRAF immunoprecipitated from XPA-1 cells treated with KG5 and KG38.
FIG. 14 illustrates immunoblot analysis of BRAF and CRAF immunoprecipitates from XPA-1 cells treated with PD0325901, Sorafenib, L-779450, PLX4720, KG5 or KG1.
as §1

T2 sequence (P04049 whole entry): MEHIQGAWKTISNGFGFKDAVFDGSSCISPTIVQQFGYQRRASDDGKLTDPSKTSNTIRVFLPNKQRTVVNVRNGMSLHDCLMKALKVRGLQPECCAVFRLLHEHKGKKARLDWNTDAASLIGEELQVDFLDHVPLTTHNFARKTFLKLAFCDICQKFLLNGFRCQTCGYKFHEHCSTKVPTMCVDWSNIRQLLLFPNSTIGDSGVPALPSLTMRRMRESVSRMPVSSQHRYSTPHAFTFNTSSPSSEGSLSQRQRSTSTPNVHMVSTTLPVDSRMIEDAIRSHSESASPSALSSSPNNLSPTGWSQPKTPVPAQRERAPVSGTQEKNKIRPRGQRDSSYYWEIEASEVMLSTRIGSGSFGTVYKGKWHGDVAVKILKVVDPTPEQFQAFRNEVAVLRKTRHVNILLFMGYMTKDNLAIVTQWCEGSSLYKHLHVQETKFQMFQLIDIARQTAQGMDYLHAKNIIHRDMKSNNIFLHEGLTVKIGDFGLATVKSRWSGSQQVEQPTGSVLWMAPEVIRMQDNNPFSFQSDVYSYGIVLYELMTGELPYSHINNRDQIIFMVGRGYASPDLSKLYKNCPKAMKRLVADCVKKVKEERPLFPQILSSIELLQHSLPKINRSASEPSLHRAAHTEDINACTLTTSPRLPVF
T1 sequence (P04049 whole entry): as above
Chain of PDGFRβ (P09619 33-1106, species assumed): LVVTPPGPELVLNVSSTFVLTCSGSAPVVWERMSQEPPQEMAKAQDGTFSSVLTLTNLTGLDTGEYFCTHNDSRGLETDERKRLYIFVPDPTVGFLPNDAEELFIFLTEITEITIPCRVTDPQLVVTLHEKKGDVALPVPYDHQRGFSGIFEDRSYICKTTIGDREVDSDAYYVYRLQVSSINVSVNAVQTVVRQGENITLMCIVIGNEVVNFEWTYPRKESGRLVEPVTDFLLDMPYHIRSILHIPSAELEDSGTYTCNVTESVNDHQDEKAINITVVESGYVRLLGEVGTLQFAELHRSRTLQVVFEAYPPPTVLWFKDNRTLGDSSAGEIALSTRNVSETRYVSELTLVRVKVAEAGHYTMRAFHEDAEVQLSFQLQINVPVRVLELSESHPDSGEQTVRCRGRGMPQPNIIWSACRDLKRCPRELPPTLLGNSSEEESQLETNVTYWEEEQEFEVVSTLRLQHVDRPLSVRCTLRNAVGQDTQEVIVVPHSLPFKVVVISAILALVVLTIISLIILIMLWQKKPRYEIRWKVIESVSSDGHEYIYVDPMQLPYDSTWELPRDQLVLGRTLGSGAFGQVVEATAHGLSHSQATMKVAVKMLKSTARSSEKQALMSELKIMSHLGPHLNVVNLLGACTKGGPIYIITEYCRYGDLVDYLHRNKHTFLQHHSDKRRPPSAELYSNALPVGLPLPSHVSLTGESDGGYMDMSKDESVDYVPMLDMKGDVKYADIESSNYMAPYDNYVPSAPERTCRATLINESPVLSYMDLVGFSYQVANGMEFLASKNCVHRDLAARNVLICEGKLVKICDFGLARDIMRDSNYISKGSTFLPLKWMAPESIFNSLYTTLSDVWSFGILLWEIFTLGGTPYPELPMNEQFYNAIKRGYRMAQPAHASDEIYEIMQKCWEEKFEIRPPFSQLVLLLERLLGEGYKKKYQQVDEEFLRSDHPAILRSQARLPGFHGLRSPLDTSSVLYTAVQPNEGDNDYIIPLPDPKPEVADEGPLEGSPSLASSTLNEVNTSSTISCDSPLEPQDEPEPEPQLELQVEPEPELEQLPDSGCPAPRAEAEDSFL

Which results are given for `CSc1nc(N)cc(Oc2ccc(-c3nnc(Nc4cccc(C(F)(F)F)c4)[nH]3)cc2)n1` [KG5]?
growth inhibitory activity against the NCI-60 panel [1]: inhibits the growth of several human cancer cell lines; also recorded: broad growth inhibitory activity; phospho-S338 CRAF in orthotopic breast cancer tissues [2]: qualitative decrease in phospho-5338 RAF; phospho-S338 CRAF in orthotopic breast cancer tissues ([2]; 50 mg/kg): inhibits serine 338 phosphorylation of CRAF; RAF dimerization [3]: prevents RAF dimerization; PAK activity [4]: does not directly inhibit PAK activity; PDGFRβ autophosphorylation [5]: directly impacts PDGFRβ autophosphorylation; inhibition of PDGFR [6]: inhibits; RAF dimerization [7]: prevents RAF dimerization
